Measurements as given in the NIST ThermoML archive (doi:10.1016/j.jct.2005.07.009).

What was measured:
[1] = excess molar enthalpy (molar enthalpy of mixing); xn = mol fraction of the nth substance listed; details: 298.15 K, 101 kPa, Liquid
[2] = xn = mol fraction of the nth substance listed; details: 298.15 K, 101 kPa, Liquid, Vibrating tube method

BrCCCBr [1,3-dibromopropane] + CCOC(=O)CC
Details	excess molar enthalpy [kJ/mol]	mass density [kg/m3]
[1], x2 = 0.0471	0.0234	–
[1], x2 = 0.1006	0.0364	–
[1], x2 = 0.1564	0.0384	–
[1], x2 = 0.2139	0.0329	–
[1], x2 = 0.2707	0.0162	–
[1], x2 = 0.3244	-0.0034	–
[1], x2 = 0.3765	-0.0253	–
[1], x2 = 0.4201	-0.0466	–
[1], x2 = 0.4478	-0.0654	–
[1], x2 = 0.4591	-0.0817	–
[1], x2 = 0.493	-0.0604	–
[1], x2 = 0.4983	-0.0857	–
[1], x2 = 0.5563	-0.103	–
[1], x2 = 0.6207	-0.109	–
[1], x2 = 0.6908	-0.105	–
[1], x2 = 0.7671	-0.0915	–
[1], x2 = 0.8476	-0.0687	–
[1], x2 = 0.9262	-0.0379	–
[2], x2 = 0.1075	–	1839.36
[2], x2 = 0.161	–	1775.98
[2], x2 = 0.2159	–	1711.67
[2], x2 = 0.2732	–	1645.81
[2], x2 = 0.3842	–	1520.67
[2], x2 = 0.4468	–	1451.66
[2], x2 = 0.5011	–	1392.66
[2], x2 = 0.5622	–	1327.28
[2], x2 = 0.6827	–	1201.05
[2], x2 = 0.7443	–	1137.95
[2], x2 = 0.8686	–	1013.23

BrCCBr [1,2-dibromoethane] + CCCC(=O)OCC
Details	excess molar enthalpy [kJ/mol]	mass density [kg/m3]
[1], x2 = 0.0385	0.0209	–
[1], x2 = 0.0839	0.0315	–
[1], x2 = 0.1324	0.0352	–
[1], x2 = 0.1841	0.0326	–
[1], x2 = 0.2355	0.0176	–
[1], x2 = 0.2844	-0.0046	–
[1], x2 = 0.3336	-0.0311	–
[1], x2 = 0.3803	-0.0547	–
[1], x2 = 0.4245	-0.0729	–
[1], x2 = 0.4313	-0.0759	–
[1], x2 = 0.458	-0.0856	–
[1], x2 = 0.5024	-0.0909	–
[1], x2 = 0.5565	-0.0964	–
[1], x2 = 0.6234	-0.0959	–
[1], x2 = 0.6941	-0.0899	–
[1], x2 = 0.7723	-0.0773	–
[1], x2 = 0.851	-0.059	–
[1], x2 = 0.9264	-0.0336	–
[2], x2 = 0.08	–	2015.53
[2], x2 = 0.1235	–	1937.68
[2], x2 = 0.1689	–	1859.7
[2], x2 = 0.2131	–	1787.18
[2], x2 = 0.311	–	1637.22
[2], x2 = 0.3652	–	1559.91
[2], x2 = 0.424	–	1480.28
[2], x2 = 0.4807	–	1407.25
[2], x2 = 0.5444	–	1329.31
[2], x2 = 0.6754	–	1181.51
[2], x2 = 0.7549	–	1098.99
[2], x2 = 0.8227	–	1032.55
[2], x2 = 0.9026	–	958.45

BrCCCCBr [1,4-dibromobutane] + CCOC(=O)CC
Details	excess molar enthalpy [kJ/mol]	mass density [kg/m3]
[1], x2 = 0.0536	0.0243	–
[1], x2 = 0.1124	0.0384	–
[1], x2 = 0.1759	0.0493	–
[1], x2 = 0.2389	0.0498	–
[1], x2 = 0.2996	0.0427	–
[1], x2 = 0.357	0.0291	–
[1], x2 = 0.4101	0.0091	–
[1], x2 = 0.4558	-0.0116	–
[1], x2 = 0.4841	-0.0259	–
[1], x2 = 0.4948	-0.0309	–
[1], x2 = 0.5354	-0.0502	–
[1], x2 = 0.5917	-0.0657	–
[1], x2 = 0.653	-0.0725	–
[1], x2 = 0.72	-0.0726	–
[1], x2 = 0.7905	-0.0629	–
[1], x2 = 0.8639	-0.0461	–
[1], x2 = 0.9353	-0.0257	–
[2], x2 = 0.1225	–	1707.2
[2], x2 = 0.1797	–	1654.41
[2], x2 = 0.2372	–	1601.35
[2], x2 = 0.299	–	1544.11
[2], x2 = 0.3597	–	1488.19
[2], x2 = 0.479	–	1376.63
[2], x2 = 0.5912	–	1271.5
[2], x2 = 0.6516	–	1214.75
[2], x2 = 0.7649	–	1107.74
[2], x2 = 0.8159	–	1059.5
[2], x2 = 0.8793	–	999.28
[2], x2 = 0.9306	–	950.5

BrCCCCBr [1,4-dibromobutane] + CCOC(C)=O
Details	excess molar enthalpy [kJ/mol]	mass density [kg/m3]
[1], x2 = 0.0724	0.108	–
[1], x2 = 0.1477	0.174	–
[1], x2 = 0.2228	0.216	–
[1], x2 = 0.2954	0.234	–
[1], x2 = 0.3654	0.235	–
[1], x2 = 0.4273	0.225	–
[1], x2 = 0.4836	0.208	–
[1], x2 = 0.5346	0.187	–
[1], x2 = 0.5727	0.165	–
[1], x2 = 0.6226	0.138	–
[1], x2 = 0.6702	0.111	–
[1], x2 = 0.7257	0.0859	–
[1], x2 = 0.7826	0.06	–
[1], x2 = 0.8416	0.0388	–
[1], x2 = 0.8982	0.0218	–
[1], x2 = 0.9516	0.0101	–
[2], x2 = 0.0713	–	1763.64
[2], x2 = 0.1362	–	1711.83
[2], x2 = 0.2057	–	1654.85
[2], x2 = 0.2657	–	1604.71
[2], x2 = 0.3922	–	1495.44
[2], x2 = 0.4539	–	1440.32
[2], x2 = 0.5154	–	1384.15
[2], x2 = 0.5749	–	1328.61
[2], x2 = 0.683	–	1224.74
[2], x2 = 0.7406	–	1167.52
[2], x2 = 0.7867	–	1121.03
[2], x2 = 0.8486	–	1057.13
[2], x2 = 0.9	–	1002.89
[2], x2 = 0.9494	–	949.81

BrCCCBr [1,3-dibromopropane] + CCOC(C)=O
Details	excess molar enthalpy [kJ/mol]	mass density [kg/m3]
[1], x2 = 0.0601	0.0547	–
[1], x2 = 0.127	0.0934	–
[1], x2 = 0.195	0.123	–
[1], x2 = 0.2607	0.139	–
[1], x2 = 0.3258	0.143	–
[1], x2 = 0.3855	0.139	–
[1], x2 = 0.4407	0.127	–
[1], x2 = 0.4829	0.113	–
[1], x2 = 0.487	0.113	–
[1], x2 = 0.5298	0.0918	–
[1], x2 = 0.5741	0.0706	–
[1], x2 = 0.628	0.0457	–
[1], x2 = 0.687	0.0222	–
[1], x2 = 0.7498	0.0032	–
[1], x2 = 0.8153	-0.0073	–
[1], x2 = 0.8813	-0.0101	–
[1], x2 = 0.9434	-0.0057	–
[2], x2 = 0.057	–	1910.48
[2], x2 = 0.1189	–	1845.49
[2], x2 = 0.1785	–	1782.59
[2], x2 = 0.2647	–	1691.31
[2], x2 = 0.3199	–	1632.54
[2], x2 = 0.4187	–	1526.9
[2], x2 = 0.466	–	1476.19
[2], x2 = 0.5091	–	1429.89
[2], x2 = 0.6323	–	1296.79
[2], x2 = 0.6746	–	1250.93
[2], x2 = 0.7715	–	1145.6
[2], x2 = 0.8309	–	1080.67
[2], x2 = 0.8892	–	1016.69
[2], x2 = 0.9615	–	937.08

BrCCCCCCBr [1,6-dibromohexane] + CCOC(=O)CC
Details	excess molar enthalpy [kJ/mol]	mass density [kg/m3]
[1], x2 = 0.0655	0.0441	–
[1], x2 = 0.1421	0.0769	–
[1], x2 = 0.2176	0.0982	–
[1], x2 = 0.2889	0.11	–
[1], x2 = 0.3565	0.112	–
[1], x2 = 0.4183	0.107	–
[1], x2 = 0.4746	0.0944	–
[1], x2 = 0.5242	0.0786	–
[1], x2 = 0.5687	0.062	–
[1], x2 = 0.5968	0.0523	–
[1], x2 = 0.6497	0.0374	–
[1], x2 = 0.7061	0.0253	–
[1], x2 = 0.7663	0.018	–
[1], x2 = 0.8256	0.0129	–
[1], x2 = 0.8846	0.0079	–
[1], x2 = 0.9439	0.0029	–
[2], x2 = 0.0785	–	1558.6
[2], x2 = 0.1542	–	1515.02
[2], x2 = 0.223	–	1474.07
[2], x2 = 0.2897	–	1432.85
[2], x2 = 0.3566	–	1390.07
[2], x2 = 0.4169	–	1350.15
[2], x2 = 0.5364	–	1266.98
[2], x2 = 0.595	–	1224.16
[2], x2 = 0.6523	–	1181.7
[2], x2 = 0.7055	–	1139.41
[2], x2 = 0.7573	–	1097.77
[2], x2 = 0.8052	–	1058.09
[2], x2 = 0.8583	–	1012.69
[2], x2 = 0.9041	–	972.41
